# Data: a melting point compilation (Tetko et al.; mined from patent text by program, amines drawn as free bases though some values may be those of a salt)
row,SMILES,melting point [°C]
1,CCCC(=O)Nc1ccc(N2CCC(NC[C@H](O)COc3cccc4[nH]c5ccccc5c34)CC2)cc1,194 to 199
2,COc1ccc(-c2cc3ccccc3o2)cc1,145 to 147
3,C=Cc1c(N=C2NCCN2)cccc1OC,126
4,Oc1nc(Cl)c(Cl)cc1Cl,168 to 170
5,N#Cc1ccc(OCCCOc2cccc(-c3cc4cc(C#N)ccc4o3)c2)cc1,157 to 158
6,O=C(Nc1ccccc1)C1=C(Nc2ccc(Cl)cc2)COC1=O,209 to 210
7,CC(=O)N1CCC(C(=O)N2CC[C@@H](N(C)C(=O)c3ccc(C4CC4)cc3)[C@H](c3ccc(Cl)c(Cl)c3)C2)CC1,129 to 133
8,CCC(C(=O)C(C)C(O)C(C)CCc1c(Cl)cc(C)c(O)c1C(=O)O)C1OC(CC)(C2CCC(O)(CC)C(C)O2)CC1C (stereo unspecified),183 to 185
9,CCCCC(CC)CN(CCC)c1ccc(C2=C(C#N)C(=C(C#N)C#N)NC2=O)cc1 (stereo unspecified),189
10,CCCCC/C(=C\c1ccccc1)CNc1cccc(-c2ccnc3c(C(=O)c4cccs4)cnn23)c1,110 to 112
11,COc1ccc(-c2nc(CNC(=O)CCC(=O)O)sc2-c2ccc(OC)cc2)cc1,110 to 116
12,Nc1nc2ccccc2c2sc(CCc3ccccc3)nc12,158 to 159
13,COc1ccc2c(=O)c(NC(=O)C(=O)O)coc2c1,236 to 238
14,CCOc1ccc(NCc2cc(OC)c(OC)c(OC)c2)cc1,76 to 78
15,COc1cc(Nc2nnc(Cc3ccncc3)c3ccccc23)cc(OC)c1OC,110 to 111
16,COCCOc1cc(OCCOC)c2c(=O)[nH]c(-c3cc(C)nc(C)c3)nc2c1,150 to 151
17,O=C1CCC(N2Cc3c(CNC(=S)NC4CCCCC4)cccc3C2=O)C(=O)N1 (stereo unspecified),> 260
18,O=C(c1cccc2cc[nH]c12)N1CCN(c2ccc(F)cc2)CC1,222 to 224
19,CCC(C)(C)N1CCNC(S(=O)(=O)Nc2ccc3[nH]c(C(=O)N4CCN(c5ncccc5NC(C)C)CC4)cc3c2)C1 (stereo unspecified),158 to 160
20,O=C(O)[C@H]1CCn2c(cc3ccccc32)C1,244 to 246
21,CCCc1nc(NC(=O)N(C)C)nc(N2CCOCC2)n1,110 to 111
22,O=C(Nc1ccc(Oc2ncnc3cc4c(cc23)OCCOCCOCCO4)c(F)c1)c1c[nH]cc(-c2ccc(F)cc2)c1=O,188 to 190
23,CC1CCc2c(N3CCC(O)CC3)c(F)cc3c(=O)c(C(=O)O)cn1c23 (stereo unspecified),244 to 247

row,SMILES,melting point [°C]
1,CCOC(=O)N(c1ccc(Cl)cc1)c1ccccc1N=NC(NC(=O)CCl)(C(=O)OCC)C(=O)OCC,80 to 85
2,N#Cc1ccc(C2NCCc3ccccc32)cc1 (racemic),114 to 115
3,CC(C)(C)OC(=O)N1CCn2c(-c3ccccc3)cc(C#N)c2C1,124 to 126
4,O=C(NCCCn1cncn1)c1ccc([N+](=O)[O-])o1,176 to 177
5,COc1ccc(CN(C)CCCOc2ccc(NC(=O)c3cccc4c(=O)c5ccccc5[nH]c34)c(C)c2)cc1OC,145 to 150
6,CCOC(=O)C(C)c1ccc(CC2CCCCC2=NO)cc1 (stereo unspecified),102 to 104
7,FC(F)(F)c1cccc(CSc2nc3cnccc3[nH]2)c1,148 to 150
8,COc1ccnc(CCc2nc3cc(-c4ccc(S(=O)(=O)NCCO)cc4)cnc3[nH]2)c1,218 to 220
9,NS(=O)(=O)c1ccc(-c2cn(-c3nc(-c4ccc(Cl)cc4)cc(C(F)(F)F)n3)cn2)cc1,324
10,CC(C)(C)C1=NN(c2ccc(C(=O)O)cc2)C(c2ccc(Br)cc2)C1 (stereo unspecified),222
11,CC(=O)NC[C@H]1CN(c2cc(F)c(N3CCC(n4nnc(N5CCN(C)CC5)n4)CC3)c(F)c2)C(=O)O1,184 to 188
12,ON=C1CCCc2cc(OCCn3ccnc3)ccc21,177 to 179
13,CN1C(=O)C(C#N)(c2ccc(OCC3CO3)cc2)Sc2ccccc21 (stereo unspecified),136 to 139
14,CCn1cc(C(=O)O)c(=O)c2cc(Cl)c(N3CCN(c4ccccc4)CC3)cc21,234 to 235
15,COc1cccc2c1CCCC2n1cc[nH]c1=S (stereo unspecified),176 to 177
16,CCC1(CCCCCC(=O)O)C(=O)NC(=O)NC1=O,185 to 192
17,OCCNCCOCCOCCNCCO,49 to 55
18,CCCCCCCCC(=O)Nc1ccn(C2OC(CO)C(O)C2O)c(=O)n1 (stereo unspecified),150 to 152
19,O=C(Nc1ccc(OCc2ccncc2)c2ccccc12)c1cc(F)cc(N2CCCCC2)c1,69 to 71
20,CC(C#Cc1ccc(C=Cc2ccc(F)cc2)s1)N(O)C(N)=O (stereo unspecified),177
21,COc1ccc(-c2cc3ccc(OC)cc3c(=S)[nH]2)cc1,188 to 190
22,Cc1cccc(C(=O)NCC2CC2)c1NC(=O)c1cc(C(F)(F)F)nn1-c1ncccc1Cl,199
23,CCN(CC)C1=NS(=O)(=O)c2cccc(OC(F)F)c21,93 to 94

row,SMILES,melting point [°C]
1,CCOCc1nc2c(N)nc3cc(OCCCCCCNC(C)=O)ccc3c2n1CC(C)(C)NS(C)(=O)=O,169 to 171
2,C#CCCOc1cc(NC(=O)CC(CC(=O)O)C(F)(F)F)c(F)cc1Cl (stereo unspecified),136 to 137
3,CC(C)CNCC(=O)Nc1ccc2c(c1)C(=O)c1cc(NC(=O)CNCC(C)C)ccc1C2=O,146
4,CCCSc1ccccc1S(N)(=O)=O,58 to 64
5,Cc1ccc(OC2COc3ccc(O)cc3C2O)cn1 (stereo unspecified),240 to 241
6,CC(C)OCCCNC(=O)C(C)(C(C)C)C(C)C,32
7,O=C(c1ccccc1)N1CC(OCc2ccccc2)C(OCc2ccccc2)C(OCc2ccccc2)C1CO (stereo unspecified),104 to 106
8,NNc1nc(C(F)(F)F)nc(-c2ccc(F)cc2)c1-c1ccccc1,175 to 177
9,COC(=O)C(OC)(OC)c1ccccc1Br,55
10,CNC(=C[N+](=O)[O-])NCCSCc1cc(OC)ccn1,107 to 108
11,CN(C)c1ccnc(-c2ccncc2)n1,109 to 110
12,CN1CCN(S(=O)(=O)c2cccc(-c3cc(-c4nc(-c5ccc(C(F)(F)F)cc5)cc(C(F)(F)F)n4)ccn3)c2)CC1,205
13,COc1ccc2c(c1C)OC(C)(C)CC2=O,105 to 107
14,COc1ccc(C(CC(=O)Nc2cc(C(N)=O)ccc2C(C)(C)C)CC(C)C)c(OC)c1 (stereo unspecified),194 to 196
15,CC(C)C(NC(=O)OC(C)(C)C)N1CC(NC(=O)Cc2ccccc2)C1=O (stereo unspecified),64 to 66
16,O=C1NC(=O)c2c1c(-c1ccccc1Cl)cc1c2c2cc(O)ccc2n1CCCSc1ccccc1,229 to 231
17,COc1ccc(/C=C/c2ccncn2)cc1OC1CCCC1,83 to 84.5
18,CN(C)S(=O)(=O)N1CCN(c2ccnc(CO)n2)CC1,148 to 149
19,CC(C)(C)OC(=O)N(C(=O)OC(C)(C)C)c1c(C#N)csc1C(=O)O,159 to 160
20,CC(C)(C)OC(=O)NC(Cc1cc(C(=O)c2cc(C(F)(F)F)cc(C(F)(F)F)c2)ccc1N)C(=O)OC(C)(C)C (stereo unspecified),134 to 135
21,CC=CC(=O)Oc1cc(C)nc(C(Cl)(Cl)Cl)n1,55

# The remaining lines, values ahead:
row,melting point [°C],SMILES
1,178 to 179,NC(=O)c1ccccc1N1CCN(Cc2cn3cc(Cl)ccc3n2)CC1
2,198 to 199,Cc1noc(NC(=O)N2CCN(c3cc(-c4ccc(F)cc4F)ncn3)CC2)c1C
3,166 to 168,COc1ccc(Cn2nnnc2C(=O)Nc2cccc(N3CCCCC3)c2C#N)cc1
4,154 to 156,CCOCc1nc2c(N)nc3cccnc3c2n1CC(C)(C)NC(=O)C(C)C
5,136 to 139,COC(=O)c1ccc(Cn2ccc(OCc3ccc(F)cc3F)c(Br)c2=O)cc1
6,> 300,CN(C)c1ccc(-c2n[nH]c3c2c(=O)n(-c2ccccc2)c2ncccc32)cc1
7,208 to 210,COc1cccc([C@H]2O[C@H](CC(=O)O)C(=O)N(CC(C)(CO)CO)c3ccc(Cl)cc32)c1OC
8,188 to 189,O=C1c2ccccc2C(=O)N1c1ncc(C(Cl)Cl)nc1CO
9,260 to 262,O=C1NC(c2ccccc2)c2cc(Cl)ccc2-n2nc(CO)cc21 (stereo unspecified)
10,166 to 167,CC(C)CNC(=O)C=Cc1ccc(OCc2ccccc2)c([N+](=O)[O-])c1
11,158 to 160,CN(C)C(=O)C(O)(C(=O)O)c1ccc(Cl)c(Cl)c1 (stereo unspecified)
12,97 to 98,Cc1nc(C)c(Cl)c(NCc2cc(OCC(F)(F)F)c(OCc3ccccc3)c(Br)n2)n1
13,201 to 204,CC(=O)N(C)c1ccc(Cl)c(COc2cccn3c(Br)c(C)nc23)c1Cl
14,71 to 72,O=C(OC1CCN(Cc2ccccc2)CC1)c1ccc(Br)cc1
15,135 to 141,CCC1CCCCN1C(=O)C=Cc1c(-c2cccc(NC)c2)nn2ccccc12 (stereo unspecified)
16,143,CCCCn1c(=O)c(C#N)c(N2CCN(C(=O)c3cccs3)CC2)c2cccnc21
17,76 to 79,Cc1c(C)c(N2CCN(Cc3ccccc3)CC2)c(C)c2c1OC(C)(C)C2c1ccc(F)nc1 (stereo unspecified)
18,236 to 238,COC(=O)c1cc(O)cc2cc(-c3ccc(O)cc3)oc12
19,177 to 179,COC(=O)c1c(C)nn2c(-c3cccc(C(F)(F)F)c3)ccnc12
20,109,Brc1cncc(-c2ccccc2Oc2ccccc2)c1
21,107 to 108,CCC(CC)COc1c(-c2ccc(S(C)(=O)=O)cc2)cnn(-c2ccc(F)cc2)c1=O
22,220 to 221,COc1ccc(COc2ccc(OC)c(Cc3cnc(N)nc3N)c2)cc1
23,170,CCOC(=O)C1Cc2c([nH]c3ccccc23)C(c2ccc(N(C)C)cc2)N1 (stereo unspecified)
24,123 to 125,CC(C)c1cccc(-c2ccc(F)cc2)c1OCCOc1ccc(C(=O)C(=O)O)cc1
25,190,Cc1[nH]c2cccc(NC(=O)NCc3ccc(Br)cc3)c2c1C
26,292 to 298,CCCCS(=O)(=O)NC(=O)c1ccc2nc(C)n(Cc3ccc(-c4ccccn4)cc3)c2c1
27,230,C#CCOc1ccc2c(c1)c(-c1ccc(C(C)C)cc1)nc(=O)n2Cc1cccc(O)c1
28,119 to 120,COC(=O)c1c(-c2ccccc2)n[nH]c1C
29,> 200,O=C(NC1CN(C(=O)Nc2ccc(OC(F)(F)F)c(Cl)c2)N=C1c1ccc(Br)cc1)c1ccc(Cl)cc1 (stereo unspecified)
